From paper PMC11452728, “Pharmacokinetics of pulmonary indacaterol in rat lung using molecular imprinting solid-phase extraction coupled with RP-UPLC” (Scientific Reports, 2024)

What was measured:
[1] = Pharmacokinetic study of indacaterol in rat lung tissues (MISPE, UPLC); type: in vivo, male Wistar rats; conditions: rat lungs
Description: AUC was calculated using the trapezoidal rule where, AUC 0−t was determined by summing the areas of consecutive trapezoids formed by plotting drug concentration versus time[36]. The elimination rate constant was estimated from the least-squares regression slope of the terminal lung concentrations by multiplying the negative slope by 2.303[36]. The AUC 0−inf was calculated using Eq. (9)[36]:9 [drawing 9]
where, Ct is the last lung concentration measured. The t1/2 was calculated using Eq. (10)[36]:10 [drawing 10]
The rats were divided into eight sampling time points (n = 3/sampling time point) representing different time intervals (0.0, 5.0, 15.0, 30.0, 60.0, 180.0, 360.0 and 1440.0 min) for the pharmacokinetic study. Except for the zero-time sampling point; where rats were not administered the drug and were used for bioanalytical validation; each rat in each sampling time point was administered one inhalation capsule containing 150 µg of indacaterol using a powder administration device for animals (Aptar Pharma, Le Prieure, Le Neubourg, France). The powder administration device was designed to deliver a uniform dose of dry powder inhalers into the lungs of rats.
At each time interval, three rats were subjected to euthanasia in the euthanasia chamber using carbon dioxide gas inhalation, after being unconscious, the rats were subjected to decapitation and their lungs were separated and cut into small slices to facilitate homogenization. Then, the lung tissues were homogenized for 10 min using a homogenizer placed in an ice jacket with 2.0 mL of PBS. The homogenized samples were then centrifuged, and the supernatant was separated and loaded into MISPE cartridge following the optimized MISPE steps. The drug was eluted in 1.0 mL of the eluent. Then, 10.0 µL of salbutamol stock solution was added to the eluent as an IS, and the eluent was then injected into UPLC. The same procedure was repeated at each time interval. Dead animal bodies were kept in biohazard bags in -20^ºC freezer and finally incinerated by specialized waste disposal companies.

[2] = Stability of lung samples spiked with indacaterol standard; type: physicochemical, rat; conditions: for Short-term stability, % deviation from fresh sample: room temperature 2 h, lung sample; for Long-term stability, % deviation from fresh sample: -80 °C 3 weeks; for Auto-sampler stability, % deviation from fresh sample: autosampler 30°C 6 h; for Freeze and thaw stability, % deviation from fresh sample: three cycles each of 24 h
Description: Regarding the preparation of lung tissue samples, three non-medicated male rats were sacrificed by decapitation and their whole lungs were harvested. The lungs were cut into small slices and mixed with 2.0 mL of PBS, homogenized in an ice jacket for 10.0 min. Subsequently, 1800.0 µL of the homogenate was collected and spiked with 200.0 µL of indacaterol solution with concentrations of 1.0, 3.0, 350.0, and 700.0 µg mL^− 1 separately, to achieve the concentration of the LLOQ and QCs per 1.0 mL of the lung homogenate. Samples were centrifuged at 3000 rpm for 10 min and 1.0 mL of the supernatant was passed through the MISPE cartridge according to the extraction protocol outlined in section "Preparation and optimization of MISPE". Finally, 10.0 µL of salbutamol stock standard solution was added to the eluent as IS, and the samples were injected into the UPLC for analysis.
Samples stabilities were assessed by injecting LLOQ and QCs six times and compared to freshly prepared samples using the following stability conditions:
Samples were left at room temperature for a time exceeding that required for sample preparation (2 h).
Samples were left in autosampler (30°C) for 6 h; expected time of samples storage in autosampler before injection. Then, samples were injected.
Samples were subjected to three cycles of freeze and thaw each of 24 h and the samples were kept under the same conditions as during the analysis.
Samples were stored at -80^ºC over a period exceeding that required for the whole experiment (3 weeks).
The results of all stability conditions were evaluated using Eq. (2). The deviation should not exceed ± 15.0%.2 [drawing 2]

[3] = Solubility of indacaterol in solvents (porogen and washing solvent choice); type: physicochemical
[4] = cited from earlier work
[5] = design: method as in PMID 24295085; conditions: human lung and pulmonary microsomes; cited from earlier work
[6] = design: method as in PMID 19819331; conditions: cited from earlier work
[7] = male, Wistar, lung, inhaled or intranasal, 150 ug, single inhaled capsule 150 µg, mean ± SD

CCc1cc2c(cc1CC)CC(NC[C@H](O)c1ccc(O)c3[nH]c(=O)ccc13)C2 [indacaterol, 5-[(1R)-2-(5,6-diethyl-indan-2-ylamino)-1-hydroxy-ethyl]−8-hydroxy-1H-quinolin-2-one]
Cmax ([1]; male, Wistar, lung, inhaled or intranasal, 150 ug, single inhaled Onbrez Breezhaler capsule 150 µg indacaterol, n = 3 per sampling time point, mean ± SD): 51 ± 2.81 µg/mL
AUC(0-inf) [1, 7]: 542 ± 5.25 µg·h/mL
Tmax [1, 7]: 4.98 ± 0.06 min
half-life ([1]; male, Wistar, lung, inhaled or intranasal, 150 ug, single inhaled capsule 150 µg, mean ± SD, read-out: t1/2 (0–24) (converted)): 48.51 ± 0.012 h
AUC(0-t) ([1]; male, Wistar, lung, inhaled or intranasal, 150 ug, zero to 24 h, single inhaled capsule 150 µg, mean ± SD): 175.9 ± 1.05 µg·h/mL
onset of lung deposition ([1]; single inhaled capsule 150 µg): 5 min
Elimination rate constant ([1]; single inhaled capsule 150 µg, mean ± SD): 0.014 ± 0.00012 h^− 1
Short-term stability, % deviation from fresh sample ([2]; LLOQ 0.10 µg mL^-1): -11.30±3.50%
Long-term stability, % deviation from fresh sample ([2]; LLOQ): -13.10±5.89%
Auto-sampler stability, % deviation from fresh sample ([2]; LLOQ): -12.05±4.20%
Freeze and thaw stability, % deviation from fresh sample ([2]; LLOQ): -13.26±4.85%
Short-term stability, % deviation from fresh sample ([2]; QCH 70.0 µg mL^-1): -2.89±1.94%
Long-term stability, % deviation from fresh sample ([2]; QCH): -3.28±1.32%
Auto-sampler stability, % deviation from fresh sample ([2]; QCH): -1.71±2.67%
Freeze and thaw stability, % deviation from fresh sample ([2]; QCH): -2.20±2.25%
Short-term stability, % deviation from fresh sample ([2]; QCL 0.30 µg mL^-1): -5.74±2.25%
Long-term stability, % deviation from fresh sample ([2]; QCL): -4.40±3.88%
Auto-sampler stability, % deviation from fresh sample ([2]; QCL): -5.98±2.58%
Freeze and thaw stability, % deviation from fresh sample ([2]; QCL): -4.80±3.26%
Short-term stability, % deviation from fresh sample ([2]; QCM 35.0 µg mL^-1): -4.14±2.61%
Long-term stability, % deviation from fresh sample ([2]; QCM): -3.90±2.22%
Auto-sampler stability, % deviation from fresh sample ([2]; QCM): -4.02±2.34%
Freeze and thaw stability, % deviation from fresh sample ([2]; QCM): -4.30±2.81%
solubility in acetonitrile and chloroform ([3]; tested as porogen): insolubility
solubility in methanol ([3]; washing solvent discussion): high
time to enter the bloodstream after inhalation ([4]; after being inhaled): ≤ 5 min
time to highest blood concentration ([4]; after entering the bloodstream, at very low doses): approximately 15 min
absolute bioavailability ([4]; inhaled): 45%
fraction of systemically available indacaterol due to pulmonary absorption (Flung) ([4]; inhaled): 74%
time to steady state ([4]; once-daily inhalation): 12 days
metabolism by UGT1A1 and CYP3A4 in the lung [5]: did not detect any apparent metabolism
lipophilicity [6]: high
binding affinity for raft micro-domains compared to other β2 agonists ([6]; plasma membrane of airway smooth muscle): two-fold higher
